Data published in publication PMC4013547 (ACS chemical biology, 2013).

Biological target: Ldtfm (E. faecium L,D-transpeptidase, catalytic domain) (Enterococcus faecium, UniProt Q3Y185)
Assay: NMR chemical shift perturbation
Type: binding
Settings: covalent; active-site cysteine Cys442; Pocket 1

| Structure (SMILES) | NMR chemical shift perturbation |
| --- | --- |
| C[C@@H](O)[C@H]1C(=O)N2C(C(=O)O)=C(S[C@@H]3CN[C@H](CNS(N)(=O)=O)C3)[C@H](C)[C@H]12 [doripenem] | NMR chemical shift perturbations observed with imipenem, doripenem and meropenem |
| C[C@@H](O)[C@H]1C(=O)N2C(C(=O)O)=C(SCCN=CN)C[C@H]12 [imipenem] | NMR chemical shift perturbations observed with imipenem, doripenem and meropenem |
| C[C@@H](O)[C@H]1C(=O)N2C(C(=O)O)=C(S[C@@H]3CN[C@H](C(=O)N(C)C)C3)[C@H](C)[C@H]12 [meropenem] | NMR chemical shift perturbations observed with imipenem, doripenem and meropenem |
